The target of experiment [1] is T1, gastrointestinal H^+ K^+ ATPase (Sus scrofa, UniProt P19156).
T1 construct: Lyophilized gastric vesicles were prepared from pig fundic mucosa; from tissue; host or cells: pig fundic mucosa (lyophilized gastric vesicles)
The experiment in a line: K+-stimulated ATPase activity in lyophilized gastric vesicles (H/K-ATPase). The note with it: lyophilized pig gastric vesicles, 37° C.; for IC50: K+-stimulated ATPase activity, pH 7.0, 30 minutes. The experiment is classed as biochemical. The method, then: The effects of a single high concentration (100 μM) of a compound of structure (I) on K-stimulated ATPase activity in lyophilized gastric vesicles was determined. Preferred compounds of structure (I) were also tested over a range of concentrations to determine IC50 values. Lyophilized gastric vesicles were prepared from pig fundic mucosa after the method of Keeling et. al. (Biochem. Pharmacol., 34, 2967, 1985). K^+ -stimulated ATPase activity was determined at 37° C. in the presence of the following : 10 mM Pipes/Tris buffer pH 7.0, 2 mM MgSO4, 1 mM KCl, 2 mM Na2 ATP and 3-6 μg protein/ml lyophilized gastric vesicles. After incubation for 30 minutes, the inorganic phosphate hydrolyzed from ATP was determined by the method of Yoda and Hokin (Biochem. Biophys. Res. Commun. 40, 880, 1970). Compounds of structure (I) were dissolved in dimethylsulphoxide which up to the highest concentration used had no effect on K^+ -stimulated ATPase activity. The effect of the highest concentration of each compound of structure (I) on the recovery of a standard amount of inorganic phosphate was also determined.

Experiment [2] concerns pentagastrin stimulated gastric acid secretion. The experiment in a line: Rat lumen perfused stomach (pentagastrin stimulated gastric acid secretion). The experiment is classed as in vivo. The note with it: iv, 10 μmole/kg. The text has this:
B. Rat Lumen Perfused Stomach ([…] stimulated […] secretion) Using a modification of the procedure described by Ghosh & Schild (Br. J. Pharmacology, 13, 54, 1958), the compounds of the following examples were found on i.v. administration at a concentration of 10 μmole/kg to cause an inhibition of pentagastrin stimulated gastric acid secretion as follows: […]

Counter-ions that a name gives are not always drawn.

T1 sequence (P19156 2-1034 limits assumed): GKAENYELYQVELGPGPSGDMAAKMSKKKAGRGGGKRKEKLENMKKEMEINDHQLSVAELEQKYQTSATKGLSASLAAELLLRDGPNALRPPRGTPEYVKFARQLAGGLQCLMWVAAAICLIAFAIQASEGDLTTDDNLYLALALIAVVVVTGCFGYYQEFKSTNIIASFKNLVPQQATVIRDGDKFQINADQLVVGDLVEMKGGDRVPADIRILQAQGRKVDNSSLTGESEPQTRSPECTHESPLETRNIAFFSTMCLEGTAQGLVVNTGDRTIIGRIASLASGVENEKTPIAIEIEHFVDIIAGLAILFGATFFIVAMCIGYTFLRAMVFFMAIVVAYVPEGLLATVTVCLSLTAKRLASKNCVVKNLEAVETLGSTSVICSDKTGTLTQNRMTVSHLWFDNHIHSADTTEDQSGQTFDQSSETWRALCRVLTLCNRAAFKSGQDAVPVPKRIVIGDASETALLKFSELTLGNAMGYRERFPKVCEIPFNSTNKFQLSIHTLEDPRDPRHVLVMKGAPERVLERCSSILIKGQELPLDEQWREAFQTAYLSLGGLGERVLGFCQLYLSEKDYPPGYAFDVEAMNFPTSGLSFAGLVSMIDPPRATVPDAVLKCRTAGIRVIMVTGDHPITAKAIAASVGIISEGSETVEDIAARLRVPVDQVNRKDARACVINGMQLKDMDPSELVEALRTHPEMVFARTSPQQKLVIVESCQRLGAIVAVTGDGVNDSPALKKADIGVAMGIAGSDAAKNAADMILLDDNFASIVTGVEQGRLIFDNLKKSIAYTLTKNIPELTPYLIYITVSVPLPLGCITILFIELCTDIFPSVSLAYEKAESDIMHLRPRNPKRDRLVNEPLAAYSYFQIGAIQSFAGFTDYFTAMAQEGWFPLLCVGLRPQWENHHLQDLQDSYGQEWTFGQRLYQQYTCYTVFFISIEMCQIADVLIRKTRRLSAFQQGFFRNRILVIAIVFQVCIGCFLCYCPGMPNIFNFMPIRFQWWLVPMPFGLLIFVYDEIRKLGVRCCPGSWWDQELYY
T1 sequence (P18434 whole entry partner): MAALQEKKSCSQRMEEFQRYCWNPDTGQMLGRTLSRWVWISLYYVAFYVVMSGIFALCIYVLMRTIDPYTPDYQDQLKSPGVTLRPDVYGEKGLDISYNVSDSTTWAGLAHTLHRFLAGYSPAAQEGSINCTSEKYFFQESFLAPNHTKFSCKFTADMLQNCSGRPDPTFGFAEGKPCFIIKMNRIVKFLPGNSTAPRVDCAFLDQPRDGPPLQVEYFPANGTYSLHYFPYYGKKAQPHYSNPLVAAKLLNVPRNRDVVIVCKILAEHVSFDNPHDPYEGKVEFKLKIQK

In general, IC50 refers to the point on the concentration scale where inhibition reaches its midpoint. The term inhibition in vivo denotes the drop in the measured response relative to a control, in per cent. `CCCC(=O)c1cnc2c(OCCO)cccc2c1Nc1ccc(F)cc1C` [Example 14, 3-butyryl-4-(4-fluoro-2-methylphenylamino)-8-(2-hydroxyethoxy)quinoline]: the IC50 in experiment [1] amounted to 2700 nM. In experiment [2], the inhibition in vivo at 10 µmol/kg is 79%.

With `Cc1cc(O)ccc1Nc1c(C(=O)C(C)C)cnc2c(CO)cccc12` [Example 16, 3-isobutyryl-4-(4-hydroxy-2-methylphenylamino)-8-(hydroxymethyl)quinoline hydrochloride], in experiment [1], the IC50 turned out to be 40 nM. The inhibition in vivo at 10 µmol/kg in experiment [2] turned out to be 91%.

`Cc1cc(F)ccc1Nc1c(C(=O)C(C)C)cnc2c(CO)cccc12` [Example 8, 3-isobutyryl-4-(4-fluoro-2-methylphenylamino)-8-(hydroxymethyl)quinoline] came in with an IC50 in experiment [1] of 2100 nM. Further, the inhibition in vivo at 10 µmol/kg in experiment [2] is 76%.

For `CCCC(=O)c1cnc2c(C(C)O)cccc2c1Nc1ccccc1C` (stereo not shown) [Example 4, 3-butyryl-4-(2-methylphenylamino)-8-(1-hydroxyethyl)quinoline], 360 nM corresponded to half-maximal inhibition in experiment [1] (IC50). The compound also displayed an inhibition in vivo at 10 µmol/kg in experiment [2] of 63%.

As to `CCCC(=O)c1cnc2cc(CO)ccc2c1Nc1ccccc1C` [Example 6, 3-butyryl-4-(2-methylphenylamino)-7-hydroxymethylquinoline], in experiment [1] (@ 100 (μM), pH 7.0), the “% inhibition of K+-stimulated ATPase activity (printed in IC50 column as % @ 100)” value stood at 44%.

The compound `CCCC(=O)c1cnc2c(CO)cccc2c1Nc1ccc(O)cc1C` [Example 3, 3-butyryl-4-(4-hydroxy-2-methylphenylamino)-8-(hydroxymethyl)quinoline hydrochloride] showed an IC50 in experiment [1] of 180 nM. This compound also had an inhibition in vivo at 10 µmol/kg in experiment [2] of 88%.

Turning to `CCCC(=O)c1cnc2ccc(CO)cc2c1Nc1ccccc1C` [Example 5, 3-butyryl-4-(2-methylphenylamino)-6-hydroxymethylquinoline], the IC50 in experiment [1] was found to be 4400 nM. Besides, the inhibition in vivo at 10 µmol/kg in experiment [2] stood at 46%.

In experiment [1], `CCCC(=O)c1cnc2c(OCCOCCOCCO)cccc2c1Nc1ccccc1C` [Example 12, 3-butyryl-4-(2-methylphenylamino)-8-(2-(2-(2-hydroxyethoxy)ethoxy)ethoxy)quinoline] registered an IC50 of 2400 nM. Also, the inhibition in vivo at 10 µmol/kg in experiment [2] stood at 57%.

The compound `CCCC(=O)c1cnc2c(C(C)O)cccc2c1Nc1ccc(O)cc1C` (stereo not shown) [Example 15, 3-butyryl-4-(4-hydroxy-2-methylphenylamino)-8-(1-hydroxyethyl)quinoline] gave a half-inhibitory concentration (IC50) in experiment [1] of 60 nM. Besides, the inhibition in vivo at 10 µmol/kg in experiment [2] is 70%.

Turning to `CCCC(=O)c1cnc2c(OCCOC)cccc2c1Nc1ccccc1C` [Example 2, 3-butyryl-4-(2-methylphenylamino)-8-(2-methoxyethoxy)quinoline], the 50% inhibitory concentration (IC50) in experiment [1] is 2500 nM. Further, the inhibition in vivo at 10 µmol/kg in experiment [2] was 67%.

For the compound `CCCC(=O)c1cnc2c(OCCO)cccc2c1Nc1ccccc1C` [Example 10, 3-butyryl-4-(2-methylphenylamino)-8-(2-hydroxyethoxy)quinoline], the midpoint of inhibition in experiment [1], the IC50, lay at 2400 nM. This compound also yielded an inhibition in vivo at 10 µmol/kg in experiment [2] of 68%.

In experiment [1], `Cc1ccccc1Nc1c(C(=O)C(C)C)cnc2c(CO)cccc12` [Example 7, 3-isobutyryl-4-(2-methylphenylamino)-8-(hydroxymethyl)quinoline] displayed an IC50 of 820 nM. The compound further yielded an inhibition in vivo at 10 µmol/kg in experiment [2] of 74%.

In turn, `CCCC(=O)c1cnc2c(CO)cccc2c1Nc1ccc(F)cc1C` [Example 9, 3-butyryl-4-(4-fluoro-2-methylphenylamino)-8-(hydroxymethyl)quinoline] had an IC50 in experiment [1] of 2200 nM. The compound further had an inhibition in vivo at 10 µmol/kg in experiment [2] of 55%.

Regarding `CCCC(=O)c1cnc2c(OCCOCCO)cccc2c1Nc1ccc(F)cc1C` [Example 13, 3-butyryl-4-(4-fluoro-2-methylphenylamino)-8-(2-(2-hydroxyethoxy)ethoxy)quinoline], half-maximal inhibition in experiment [1] (IC50) required 4000 nM. Also, the inhibition in vivo at 10 µmol/kg in experiment [2] is 49%.

On to `CCCC(=O)c1cnc2c(OCCOCCO)cccc2c1Nc1ccccc1C` [Example 11, 3-butyryl-4-(2-methylphenylamino)-8-(2-(2-hydroxyethoxy)ethoxy)quinoline], for which half-maximal inhibition in experiment [1] (IC50) was put at 2100 nM. In experiment [2], this compound registered an inhibition in vivo at 10 µmol/kg of 77%.

For `CCCC(=O)c1cnc2c(CO)cccc2c1Nc1ccccc1C` [Example 1, 3-butyryl-4-(2-methylphenylamino)-8-(hydroxymethyl)quinoline], in experiment [1], the IC50 worked out at 840 nM. For the same compound, the inhibition in vivo at 10 µmol/kg in experiment [2] is 61%.
